Measured values taken from patent publication US20120157439A1, “RAF INHIBITOR COMPOUNDS AND METHODS OF USE THEREOF” (GENENTECH, INC., priority 2009, published 2012).
Where two headings read alike, the source gives them in different places.

Target: T1, V600E full-length B-Raf (Homo sapiens, UniProt P15056, V600E)
T1 construct: 1 μM FSBA-MEK and 20 nM V600E full-length B-Raf; made in house; host or cells: sf9 insect cells (baculovirus)
Experiment: B-Raf IC50 Assay (B-RAF V600E inhibition assay, Example A)
Assay type: biochemical
How it was run: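 Full-length V600E B-Raf (20 nM, from Sf9 baculovirus) was preincubated 15 min with 1 μM FSBA-modified wild-type MEK in pH 7.2 Pipes/KCl/MgCl2 buffer, then started with 4 μM ATP plus [γ-33P]ATP. After 60 min at 22 °C, TCA-quenched product was filter-captured and 33P incorporation counted by scintillation.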

[1] = B-Raf V600E assay of Example A: less than 100 nM, read-out: IC50
[2] = B-Raf V600E assay of Example A: less than about 1 μM, read-out: IC50
[3] = incorporation of radio labeled phosphate from [γ-33P]ATP into FSBA-modified wild-type MEK, 4 μM ATP, 20 nM V600E full-length B-Raf, 60-minute incubation, 22° C., read-out: BRAF V600E IC50

T1 sequence (P15056 whole entry V600E): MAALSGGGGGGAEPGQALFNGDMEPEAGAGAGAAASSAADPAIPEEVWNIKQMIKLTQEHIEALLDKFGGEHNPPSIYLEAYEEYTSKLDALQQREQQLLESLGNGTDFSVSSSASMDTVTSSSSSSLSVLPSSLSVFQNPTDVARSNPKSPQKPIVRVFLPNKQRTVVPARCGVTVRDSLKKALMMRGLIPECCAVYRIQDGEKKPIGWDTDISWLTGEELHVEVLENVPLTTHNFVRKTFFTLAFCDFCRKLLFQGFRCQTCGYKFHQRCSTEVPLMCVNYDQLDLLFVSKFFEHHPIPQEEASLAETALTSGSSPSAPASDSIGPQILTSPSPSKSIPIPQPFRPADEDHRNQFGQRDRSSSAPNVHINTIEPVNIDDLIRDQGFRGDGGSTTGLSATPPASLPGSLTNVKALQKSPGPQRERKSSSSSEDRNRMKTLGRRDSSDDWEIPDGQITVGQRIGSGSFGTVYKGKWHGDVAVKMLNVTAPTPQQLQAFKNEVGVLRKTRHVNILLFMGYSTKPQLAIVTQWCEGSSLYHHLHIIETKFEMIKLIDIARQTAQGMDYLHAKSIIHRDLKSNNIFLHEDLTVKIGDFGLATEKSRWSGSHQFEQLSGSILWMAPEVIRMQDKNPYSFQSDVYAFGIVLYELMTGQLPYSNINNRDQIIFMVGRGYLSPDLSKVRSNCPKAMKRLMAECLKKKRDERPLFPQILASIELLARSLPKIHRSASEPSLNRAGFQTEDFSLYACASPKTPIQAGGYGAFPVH

SMILES	IC50 [1]	IC50 [2]	IC50 [3]
CCCS(=O)(=O)Nc1ccc(Cl)c(NC(=O)c2csc3c(NCC(F)F)ncnc23)c1Cl [Example 69, 4-(2,2-Difluoro-ethylamino)-thieno[3,2-d] pyrimidine-7-carboxylic acid [2,6-dichloro-3-(propane-1-sulfonyl-amino)-phenyl]-amide]	< 100 nM	< 1000 nM	2.2 nM
CCCS(=O)(=O)Nc1ccc(Cl)c(NC(=O)c2csc3c(NC(C)C)ncnc23)c1Cl [Example 70, 4-Isopropyl-amino-thieno [3,2-d] pyrimidine-7-carboxylic acid [2 6-dichloro-3-(propane-1-sulfonyl-amino)-phenyl]-amide]	< 100 nM	< 1000 nM	3.4 nM
CCCS(=O)(=O)Nc1ccc(Cl)c(NC(=O)c2csc3c(NC4CCOC4)ncnc23)c1Cl (stereo not shown) [Example 71, 4-(Tetrahydro-furan-3-ylamino)-thieno[3,2-d] pyrimidine-7-carboxylic acid [2,6-dichloro-3-(propane-1-sulfonyl-amino)phenyl]-amid]	< 100 nM	< 1000 nM	14.4 nM
CCCS(=O)(=O)Nc1ccc(Cl)c(NC(=O)c2csc3c(NC4CCC4)ncnc23)c1Cl [Example 72, 4-Cyclobutyl-amino-thieno [3,2-d] pyrimidine-7-carboxylic acid [2,6-dichloro-3-(propane-1-sulfonyl-amino)-phenyl]-amide]	< 100 nM	< 1000 nM	2.4 nM
CCCS(=O)(=O)Nc1ccc(Cl)c(NC(=O)c2csc3c(NC#N)ncnc23)c1Cl [Example 73, 4-Cyano-amino-thieno[3,2-d] pyrimidine-7-carboxylic acid [2,6-dichloro-3-(propane-1-sulfonyl-amino)-phenyl]amide]	< 100 nM	< 1000 nM	14 nM
CCCS(=O)(=O)Nc1ccc(Cl)c(NC(=O)c2csc3c(NCCF)ncnc23)c1Cl [Example 74, 4-(2-Fluoro-ethylamino)-thieno[3,2-d] pyrimidine-7-carboxylic acid [2,6-dichloro-3-(propane-1-sulfonyl-amino)-phenyl]amide]	< 100 nM	< 1000 nM	0.5 nM
CCCS(=O)(=O)Nc1ccc(Cl)c(NC(=O)c2csc3c(NC4CN(C)C4)ncnc23)c1Cl [Example 75, 4-(1-Methyl-azetidin-3-ylamino)-thieno[3,2-d] pyrimidine-7-carboxylic acid [2,6-dichloro-3-(propane-1-sulfonyl-amino)-phenyl]amide]			> 1000 nM
CCCS(=O)(=O)Nc1ccc(Cl)c(NC(=O)c2csc3c(NCC)ncnc23)c1Cl [Example 76, 4-Ethylamino-thieno[3,2-d] pyrimidine-7-carboxylic acid [2,6-dichloro-3-(propane-1-sulfonyl-amino)-phenyl]-amide]	< 100 nM	< 1000 nM	0.6 nM
CCCS(=O)(=O)Nc1ccc(Cl)c(NC(=O)c2csc3c(NC4CCOCC4)ncnc23)c1Cl [Example 77, 4-(Tetrahydro-pyran-4-ylamino)-thieno[3,2-d] pyrimidine-7-carboxylic acid [2,6-dichloro-3-(propane-1-sulfonyl-amino)-phenyl]-amid]	< 100 nM	< 1000 nM	77.5 nM
CCCS(=O)(=O)Nc1ccc(Cl)c(NC(=O)c2csc3c(NCC(F)(F)F)ncnc23)c1Cl [Example 78, 4-(2,2,2-Trifluoro-ethylamino)-thieno[3,2-d] pyrimidine-7-carboxylic acid [2,6-dichloro-3-(propane-1-sulfonyl-amino)-phenyl]-amide]	< 100 nM	< 1000 nM	11.7 nM
CCCS(=O)(=O)Nc1ccc(Cl)c(NC(=O)c2csc3c(NC4CCNCC4)ncnc23)c1Cl [Example 79, 4-(Piperidin-4-ylamino)-thieno[3,2-d] pyrimidine-7-carboxylic acid [2,6-dichloro-3-(propane-1-sulfonyl-amino)-phenyl]amide]		< 1000 nM	159 nM
CCCS(=O)(=O)Nc1ccc(Cl)c(NC(=O)c2csc3c(NC4CCC(F)(F)CC4)ncnc23)c1Cl [Example 80, 4-(4,4-Difluoro-cyclohexyl-amino)-thieno[3,2-d] pyrimidine-7-carboxylic acid [2,6-dichloro-3-(propane-1-sulfonyl-amino)-phenyl]-amide]		< 1000 nM	419 nM
CCCS(=O)(=O)Nc1ccc(Cl)c(NC(=O)c2csc3c(NC4CCCCC4)ncnc23)c1Cl [Example 81, 4-Cyclohexyl-amino-thieno [3,2-d] pyrimidine-7-carboxylic acid [2,6-dichloro-3-(propane-1-sulfonyl-amino)-phenyl]-amide]		< 1000 nM	110 nM
O=C(Nc1c(Cl)ccc(NS(=O)(=O)CCCF)c1Cl)c1csc2c(NC3CC3)ncnc12 [Example 82, 4-Cyclopropyl-amino-thieno [3,2-d] pyrimidine-7-carboxylic acid [2,6-dichloro-3-(3-fluoro-propane-1-sulfonyl-amino)-phenyl]-amide]	< 100 nM	< 1000 nM	0.13 nM
CCNc1ncnc2c(C(=O)Nc3c(Cl)ccc(NS(=O)(=O)CCCF)c3Cl)csc12 [Example 83, 4-Ethylamino-thieno[3,2-d] pyrimidine-7-carboxylic acid [2,6-dichloro-3-(3-fluoro-propane-1-sulfonyl-amino)-phenyl]-amide]	< 100 nM	< 1000 nM	0.32 nM
O=C(Nc1c(Cl)ccc(NS(=O)(=O)CCCF)c1F)c1csc2c(NC3CC3)ncnc12 [Example 84, 4-Cyclopropyl-amino-thieno [3,2-d] pyrimidine-7-carboxylic acid [6-chloro-2-fluoro-3-(3-fluoropropane-1-sulfonyl-amino)-phenyl]-amide]	< 100 nM	< 1000 nM	0.25 nM
CCCS(=O)(=O)Nc1cc(F)c(F)c(NC(=O)c2csc3c(NCC)ncnc23)c1F [Example 85, 4-Ethylamino-thieno[3,2-d] pyrimidine-7-carboxylic acid [2,3,6-trifluoro-5-(propane-1-sulfonyl-amino)-phenyl]-amide]	< 100 nM	< 1000 nM	5.1 nM
CCCS(=O)(=O)Nc1cc(F)c(F)c(NC(=O)c2csc3c(NC4CC4)ncnc23)c1F [Example 86, 4-Cyclopropyl-amino-thieno [3,2-d] pyrimidine-7-carboxylic acid [2,3,6-trifluoro-5-(propane-1-sulfonyl-amino)-phenyl]-amide]	< 100 nM	< 1000 nM	1.2 nM
CCCS(=O)(=O)Nc1cc(F)c(F)c(NC(=O)c2csc3c(NC4COC4)ncnc23)c1F [Example 87, 4-(Oxetan-3-ylamino)-thieno[3,2-d] pyrimidine-7-carboxylic acid [2,3,6-trifluoro-5-(propane-1-sulfonyl-amino)-phenyl]amid]	< 100 nM	< 1000 nM	15.1 nM
CCCS(=O)(=O)Nc1cc(F)c(F)c(NC(=O)c2csc3c(NC4CCOC4)ncnc23)c1F (stereo not shown) [Example 88, 4-(Tetrahydro-furan-3-ylamino)-thieno[3,2-d] pyrimidine-7-carboxylic acid [2,3,6-trifluoro-5-(propane-1-sulfonyl-amino)-phenyl]-amide]		< 1000 nM	120 nM
CCCS(=O)(=O)Nc1cc(F)c(F)c(NC(=O)c2csc3c(NCCF)ncnc23)c1F [Example 89, 4-(2-Fluoro-ethylamino)-thieno[3,2-d] pyrimidine-7-carboxylic acid [2,3,6-trifluoro-5-(propane-1-sulfonyl-amino)e-phenyl]-amid]	< 100 nM	< 1000 nM	3.7 nM
CCCS(=O)(=O)Nc1cc(F)c(F)c(NC(=O)c2csc3c(NCC(F)F)ncnc23)c1F [Example 90, 4-(2,2-Difluoro-ethylamino)-thieno[3,2-d] pyrimidine-7-carboxylic acid [2,3,6-trifluoro-5-(propane-1-sulfonyl-amino)-phenyl]-amide]	< 100 nM	< 1000 nM	16 nM
CCCS(=O)(=O)Nc1cc(F)c(F)c(NC(=O)c2csc3c(NC(C)C)ncnc23)c1F [Example 91, 4-Isopropyl-amino-thieno [3,2-d] pyrimidine-7-carboxylic acid [2,3,6-trifluoro-5-(propane-1-sulfonyl-amino)-phenyl]-amide]	< 100 nM	< 1000 nM	27.9 nM
CCCS(=O)(=O)Nc1cc(F)c(F)c(NC(=O)c2csc3c(NC)ncnc23)c1F [Example 92, 4-Methyl-amino-thieno[3,2-d] pyrimidine-7-carboxylic acid [2,3,6-trifluoro-5-(propane-1-sulfonyl-amino)-phenyl]-amide]	< 100 nM	< 1000 nM	13.2 nM
CCCS(=O)(=O)Nc1cc(F)c(F)c(NC(=O)c2csc3c(NC4CC(F)(F)C4)ncnc23)c1F [Example 93, 4-(3,3-Difluoro-cyclobutyl-amino)-thieno[3,2-d] pyrimidine-7-carboxylic acid [2,3,6-trifluoro-5-(propane-1-sulfonyl-amino)-phenyl]-amide]		< 1000 nM	118 nM
CCCS(=O)(=O)Nc1cc(F)c(F)c(NC(=O)c2csc3c(NC4CCOCC4)ncnc23)c1F [Example 94, 4-(Tetrahydro-pyran-4-ylamino)-thieno[3,2-d] pyrimidine-7-carboxylic acid [2,3,6-trifluoro-5-(propane-1-sulfonyl-amino)-phenyl]-amide]		< 1000 nM	704 nM
